Source: US20200131132A1, “FARNESOID X RECEPTOR AGONISTS AND USES THEREOF” (Metacrine, Inc., priority 2017, published 2020)

Target: T1, hFXR (Homo sapiens, UniProt Q96RI1)
T1 construct: expressed in transfected cells; host or cells: CV-1 cells
T1 sequence (Q96RI1 1-486): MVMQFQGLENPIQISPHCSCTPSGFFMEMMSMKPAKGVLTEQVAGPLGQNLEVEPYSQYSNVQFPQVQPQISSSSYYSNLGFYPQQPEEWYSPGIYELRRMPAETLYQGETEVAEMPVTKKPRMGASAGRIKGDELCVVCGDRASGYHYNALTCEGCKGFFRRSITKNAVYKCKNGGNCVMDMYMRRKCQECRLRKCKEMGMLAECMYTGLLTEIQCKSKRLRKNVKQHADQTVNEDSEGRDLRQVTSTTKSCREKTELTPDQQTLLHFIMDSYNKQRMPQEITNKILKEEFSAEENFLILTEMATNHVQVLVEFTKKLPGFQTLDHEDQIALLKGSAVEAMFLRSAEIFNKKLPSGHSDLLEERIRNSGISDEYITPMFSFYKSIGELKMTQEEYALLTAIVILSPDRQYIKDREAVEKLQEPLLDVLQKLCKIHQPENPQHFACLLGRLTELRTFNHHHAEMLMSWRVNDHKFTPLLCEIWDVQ
T1 sequence (P19793 1-462 partner): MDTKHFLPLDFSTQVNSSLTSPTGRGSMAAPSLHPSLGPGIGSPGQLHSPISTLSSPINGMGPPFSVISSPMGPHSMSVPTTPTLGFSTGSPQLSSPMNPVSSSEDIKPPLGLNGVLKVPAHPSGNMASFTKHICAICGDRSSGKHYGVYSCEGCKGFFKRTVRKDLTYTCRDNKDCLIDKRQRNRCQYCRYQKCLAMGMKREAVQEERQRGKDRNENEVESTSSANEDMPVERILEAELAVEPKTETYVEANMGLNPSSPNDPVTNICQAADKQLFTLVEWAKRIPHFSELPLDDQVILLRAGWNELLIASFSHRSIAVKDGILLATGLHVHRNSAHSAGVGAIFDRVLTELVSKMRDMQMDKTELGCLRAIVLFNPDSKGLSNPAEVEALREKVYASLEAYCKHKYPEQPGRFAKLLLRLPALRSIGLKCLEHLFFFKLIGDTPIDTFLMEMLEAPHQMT
Test: In Vitro FXR Assay (TK)
Type: cell-based
Conditions: CV-1 cells transfected with hFXR, hRXR, TK-ECRE-luc and pCMX-YFP; compounds incubated 18 hrs; luminescence
Protocol: CV-1 cells were seeded at a density of 2,000,000 cells in a T175 flask with DMEM+10% charcoal double-stripped FBS and incubated at 37° C. in 5% CO2 for 18 h (O/N).
After 18 h of incubation, the medium in the T175 flask was changed with fresh DMEM+10% charcoal super-stripped serum. In a polypropylene tube, 2500 μL OptiMEM (Life Technologies, Cat #31985-062) was combined with expression plasmids for hFXR, hRXR, TK-ECRE-luc and pCMX-YFP. The tube was then briefly vortexed and incubated at room temperature for 5 minutes. Transfection reagent (X-tremeGENE HP from Roche, Cat #06 366 236 001) was added to the OptiMEM/plasmid mixture vortexed and incubated at room temperature for 20 minutes. Following incubation, the transfection reagent/DNA mixture complex was added to cells in the T175 flask and the cells were incubated at 37° C. in 5% CO2 for 18 h (O/N).
Compounds were serially diluted in DMSO and added to transfected CV-1 cells. The cells were then incubated for 18 hrs. The next day cells were lysed and examined for luminescence.

SMILES | EC50 [µM]
COc1ccc(-c2ccc(CN(C(=O)CC(C)(C)C)c3nccc4cc(N5CCCC(O)C5)ccc34)cc2)cc1C (centres unmarked) [Compound 6.17, N-(6-(3-Hydroxypiperidin-1-yl)isoquinolin-1-yl)-N-((4′-methoxy-3′-methyl-[1,1′-biphenyl]-4-yl)methyl)-3,3-dimethylbutanamide] | ≤ 1
COc1ccc(-c2ccc(CN(C(=O)CC(C)(C)C)c3nccc4cc(N5CCC(O)CC5)ccc34)cc2)cc1C [Compound 6.18, N-(6-(4-Hydroxypiperidin-1-yl)isoquinolin-1-yl)-N-((4′-methoxy-3′-methyl-[1,1′-biphenyl]-4-yl)methyl)-3,3-dimethylbutanamide] | ≤ 1
COc1ccc(-c2ccc(CN(C(=O)CC(C)(C)C)c3nccc4cc(N5CCC(OC)C5)ccc34)cc2)cc1C (centres unmarked) [Compound 6.19, N-((4′-Methoxy-3′-methyl-[1,1′-biphenyl]-4-yl)methyl)-N-(6-(3-methoxypyrrolidin-1-yl)isoquinolin-1-yl)-3,3-dimethylbutanamide] | ≤ 1
COC(=O)Nc1ccc2c(N(Cc3ccc(-c4ccc(OC)c(C)c4)cc3)C(=O)CC(C)(C)C)nccc2c1 [Compound 6.21, Methyl (l-(N-((4′-methoxy-3′-methyl-[1,1′-biphenyl]-4-yl)methyl)-3,3-dimethylbutanamido)isoquinolin-6-yl)carbamate] | ≤ 1
COc1ccc(-c2ccc(CN(C(=O)CC(C)(C)C)c3nccc4cc(O)ccc34)cc2)cc1C [Compound 7, N-(6-Hydroxyisoquinolin-1-yl)-N-((4′-methoxy-3′-methyl-[1,1′-biphenyl]-4-yl)methyl)-3,3-dimethylbutanamide] | ≤ 1
COc1ccc(-c2ccc(CN(C(=O)CC(C)(C)C)c3nccc4cc(OCCCO)ccc34)cc2)cc1C [Compound 8, N-(6-(3-Hydroxypropoxy)isoquinolin-1-yl)-N-((4′-methoxy-3′-methyl-[1,1′-biphenyl]-4-yl)methyl)-3,3-dimethylbutanamide] | ≤ 1
COc1ccc(-c2ccc(CN(C(=O)CC(C)(C)C)c3nccc4cc(OCCCCO)ccc34)cc2)cc1C [Compound 8.1, N-(6-(4-Hydroxybutoxy)isoquinolin-1-yl)-N-((4′-methoxy-3′-methyl-[1,1′-biphenyl]-4-yl)methyl)-3,3-dimethylbutanamide] | ≤ 1
COCCOc1ccc2c(N(Cc3ccc(-c4ccc(OC)c(C)c4)cc3)C(=O)CC(C)(C)C)nccc2c1 [Compound 9, N-((4′-Methoxy-3′-methyl-[1,1′-biphenyl]-4-yl)methyl)-N-(6-(2-methoxyethoxy)isoquinolin-1-yl)-3,3-dimethylbutanamide] | ≤ 1

Further lines, results first:

EC50 [µM] | SMILES
1 to 10 | CNC(=O)COc1ccc2c(N(Cc3ccc(-c4ccc(OC)c(C)c4)cc3)C(=O)CC(C)(C)C)nccc2c1 [Compound 8.01, N-((4′-Methoxy-3′-methyl-[1,1′-biphenyl]-4-yl)methyl)-3,3-dimethyl-N-(6-(2-(methylamino)-2-oxoethoxy)isoquinolin-1-yl)butanamide]
≤ 1 | COc1ccc(-c2ccc(CN(C(=O)CC(C)(C)C)c3nccc4cc(OCC(=O)N(C)C)ccc34)cc2)cc1C [Compound 8.02, N-(6-(2-(Dimethylamino)-2-oxoethoxy)isoquinolin-1-yl)-N-((4′-methoxy-3′-methyl-[1,1′-biphenyl]-4-yl)methyl)-3,3-dimethylbutanamide]
≤ 1 | COc1ccc(-c2ccc(CN(C(=O)CC(C)(C)C)c3nccc4cc(OCC(N)=O)ccc34)cc2)cc1C [Compound 8.03, N-(6-(2-Amino-2-oxoethoxy)isoquinolin-1-yl)-N-((4′-methoxy-3′-methyl-[1,1′-biphenyl]-4-yl)methyl)-3,3-dimethylbutanamide]
1 to 10 | COc1ccc(-c2ccc(CN(C(=O)CC(C)(C)C)c3nccc4cc(OCCN(C)C)ccc34)cc2)cc1C [Compound 8.04, N-(6-(2-(Dimethylamino)ethoxy)isoquinolin-1-yl)-N-((4′-methoxy-3′-methyl-[1,1′-biphenyl]-4-yl)methyl)-3,3-dimethylbutanamide]
> 10 | COc1ccc(-c2ccc(CN(C(=O)CC(C)(C)C)c3nccc4cc(OC5CCN(C(=O)OC(C)(C)C)CC5)ccc34)cc2)cc1C [Compound 8.05, tert-Butyl 4-((1-(N-((4′-methoxy-3′-methyl-[1,1′-biphenyl]-4-yl)methyl)-3,3-dimethylbutanamido)isoquinolin-6-yl)oxy)piperidine-1-carboxylate]
> 10 | COc1ccc(-c2ccc(CN(C(=O)CC(C)(C)C)c3nccc4cc(OC5CCN(C)CC5)ccc34)cc2)cc1C [Compound 8.06, N-((4′-Methoxy-3′-methyl-[1,1′-biphenyl]-4-yl)methyl)-3,3-dimethyl-N-(6-((1-methylpiperidin-4-yl)oxy)isoquinolin-1-yl)butanamide]
> 10 | COc1ccc(-c2ccc(CN(C(=O)CC(C)(C)C)c3nccc4cc(OC5CN(C(=O)OC(C)(C)C)C5)ccc34)cc2)cc1C [Compound 8.07, tert-Butyl 3-((1-(N-((4′-methoxy-3′-methyl-[1,1′-biphenyl]-4-yl)methyl)-3,3-dimethylbutanamido)isoquinolin-6-yl)oxy)azetidine-1-carboxylate]
≤ 1 | COCCCOc1ccc2c(N(Cc3ccc(-c4ccc(OC)c(C)c4)cc3)C(=O)CC(C)(C)C)nccc2c1 [Compound 8.08, N-((4′-Methoxy-3′-methyl-[1,1′-biphenyl]-4-yl)methyl)-N-(6-(3-methoxypropoxy)isoquinolin-1-yl)-3,3-dimethylbutanamide]
≤ 1 | COc1ccc(-c2ccc(CN(C(=O)CC(C)(C)C)c3nccc4cc(OC5COC5)ccc34)cc2)cc1C [Compound 8.09, N-((4′-Methoxy-3′-methyl-[1,1′-biphenyl]-4-yl)methyl)-3,3-dimethyl-N-(6-(oxetan-3-yloxy)isoquinolin-1-yl)butanamide]
≤ 1 | COc1ccc(-c2ccc(CN(C(=O)CC(C)(C)C)c3nccc4cc(OCCO)ccc34)cc2)cc1C [Compound 8.11, N-(6-(2-Hydroxyethoxy)isoquinolin-1-yl)-N-((4′-methoxy-3′-methyl-[1,1′-biphenyl]-4-yl)methyl)-3,3-dimethylbutanamide]
1 to 10 | COc1ccc(-c2ccc(CN(C(=O)CC(C)(C)C)c3nccc4cc(OCCCN(C)C)ccc34)cc2)cc1C [Compound 8.12, N-(6-(3-(Dimethylamino)propoxy)iso-quinolin-1-yl)-N-((4′-methoxy-3′-methyl-[1,1′-biphenyl]-4-yl)methyl)-3,3-dimethylbutanamide]
≤ 1 | COc1ccc(-c2ccc(CN(C(=O)CC(C)(C)C)c3nccc4cc(OCCCO)cnc34)cc2)cc1C [Compound 8.13, N-(3-(3-Hydroxypropoxy)-1,7-naphthyridin-8-yl)-N-((4′-methoxy-3′-methyl-[1,1′-biphenyl]-4-yl)methyl)-3,3-dimethylbutanamide]
1 to 10 | COC(=O)COc1ccc2c(N(Cc3ccc(-c4ccc(OC)c(C)c4)cc3)C(=O)CC(C)(C)C)nccc2c1 [Compound 9.01, Methyl 2-((1-(N-((4′-methoxy-3′-methyl-[1,1′-biphenyl]-4-yl)methyl)-3,3-dimethylbutanamido)isoquinolin-6-yl)oxy)acetate]
≤ 1 | COC(=O)COCc1ccc2c(N(Cc3ccc(-c4ccc(OC)c(C)c4)cc3)C(=O)CC(C)(C)C)nccc2c1 [Compound 9.02, Methyl 2-((1-(N-((4′-methoxy-3′-methyl-[1,1′-biphenyl]-4-yl)methyl)-3,3-dimethylbutanamido)isoquinolin-6-yl)methoxy)acetate]
≤ 1 | COCc1ccc2c(N(Cc3ccc(-c4ccc(OC)c(C)c4)cc3)C(=O)CC(C)(C)C)nccc2c1 [Compound 9.03, N-((4′-Methoxy-3′-methyl-[1,1′-biphenyl]-4-yl)methyl)-N-(6-(methoxymethyl)isoquinolin-1-yl)-3,3-dimethylbutanamide]
